# Legend:
# Assay in all cases: cells
# [1] = test system: HCC70; assay type: functional, cell-based, Homo sapiens; conditions: Homo sapiens, HCC70;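 also: cell viability assay measuring how strongly the compound suppresses proliferation of HCC70 cells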
# Description: SANGER: Inhibition of human HCC70 cell growth in a cell viability assay.
# [2] = test system: MKN-28; assay type: functional, cell-based, Homo sapiens; conditions: Homo sapiens, MKN-28;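 also: cell viability assay read-out, IC50 reflects suppression of growth of human MKN-28 cells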
# Description: SANGER: Inhibition of human MKN28 cell growth in a cell viability assay.
# [3] = test system: AM-38; assay type: functional, cell-based, Homo sapiens; conditions: Homo sapiens, AM-38;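 also: growth inhibition of AM-38 cells of human origin, read out by a cell viability assay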
# Description: SANGER: Inhibition of human AM-38 cell growth in a cell viability assay.
# [4] = test system: NCI-H747; assay type: functional, cell-based; conditions: Homo sapiens;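 also: growth inhibition of human NCI-H747 cells, read out by a cell viability assay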
# Description: SANGER: Inhibition of human NCI-H747 cell growth in a cell viability assay.
# [5] = test system: RXF 393; assay type: functional, cell-based; conditions: Homo sapiens;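 also: growth inhibition of human RXF 393 cells, read out with a cell viability assay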
# Description: SANGER: Inhibition of human RXF393 cell growth in a cell viability assay.
# [6] = test system: TE-10; assay type: functional, cell-based, Homo sapiens; conditions: Homo sapiens, TE-10;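 also: growth inhibition of TE-10 cells, measured by a cell viability assay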
# Description: SANGER: Inhibition of human TE-10 cell growth in a cell viability assay.
# [7] = test system: HL-60; assay type: functional, cell-based; conditions: Homo sapiens;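 also: growth inhibition of human HL-60 cells, read out with a cell viability assay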
# Description: SANGER: Inhibition of human HL-60 cell growth in a cell viability assay.
# [8] = test system: TE-1; assay type: functional, cell-based, Homo sapiens; conditions: Homo sapiens, TE-1;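 also: growth inhibition of the human TE-1 cell line, read out with a cell viability assay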
# Description: SANGER: Inhibition of human TE-1 cell growth in a cell viability assay.
# [9] = test system: KM12; assay type: functional, cell-based, Homo sapiens; conditions: Homo sapiens, KM12;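 also: KM12 cell growth inhibition, read out with a cell viability assay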
# Description: SANGER: Inhibition of human KM12 cell growth in a cell viability assay.
# [10] = test system: A704; assay type: functional, cell-based, Homo sapiens; conditions: Homo sapiens, A704;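 also: growth inhibition of human A704 cells, read out with a cell viability assay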
# Description: SANGER: Inhibition of human A704 cell growth in a cell viability assay.
# [11] = test system: CAL-85-1; assay type: functional, cell-based; conditions: Homo sapiens;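 also: growth inhibition of human CAL-85-1 cells, read out with a cell viability assay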
# Description: SANGER: Inhibition of human CAL-85-1 cell growth in a cell viability assay.
# [12] = test system: RD; assay type: functional, cell-based, Homo sapiens; conditions: Homo sapiens, RD
# Description: SANGER: Inhibition of human RD cell growth in a cell viability assay.
# [13] = test system: SHP77; assay type: functional, cell-based, Homo sapiens, SHP-77; conditions: Homo sapiens, SHP77;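 also: growth inhibition of human SHP-77 cells measured by a cell viability assay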
# Description: SANGER: Inhibition of human SHP-77 cell growth in a cell viability assay.
# [14] = test system: MDA-MB-157; assay type: functional, cell-based, Homo sapiens; conditions: Homo sapiens, MDA-MB-157
# Description: SANGER: Inhibition of human MDA-MB-157 cell growth in a cell viability assay.
# [15] = test system: CAL-12T; assay type: functional, cell-based, Homo sapiens; conditions: Homo sapiens, CAL-12T;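 also: growth inhibition of human CAL-12T cells, read out with a cell viability assay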
# Description: SANGER: Inhibition of human CAL-12T cell growth in a cell viability assay.
# [16] = test system: GAK; assay type: functional, cell-based, Homo sapiens; conditions: Homo sapiens, GAK;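 also: cell growth inhibition read out by a cell viability assay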
# Description: SANGER: Inhibition of human GAK cell growth in a cell viability assay.
# [17] = test system: HCE-T; assay type: functional, cell-based, Homo sapiens; conditions: Homo sapiens, HCE-T;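 also: cell viability assay read-out, reporting inhibition of HCE-T cell growth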
# Description: SANGER: Inhibition of human HCE-T cell growth in a cell viability assay.
# [18] = test system: A-427; assay type: functional, cell-based, Homo sapiens; conditions: Homo sapiens, A-427;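 also: growth inhibition of human A-427 cells, read out by a cell viability assay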
# Description: SANGER: Inhibition of human A427 cell growth in a cell viability assay.
# [19] = test system: COR-L88; assay type: functional, cell-based; conditions: Homo sapiens;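 also: growth inhibition of COR-L88 cells, read out with a cell viability assay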
# Description: SANGER: Inhibition of human COR-L88 cell growth in a cell viability assay.
# [20] = test system: DoTc2-4510; assay type: functional, cell-based, Homo sapiens; conditions: Homo sapiens, DoTc2-4510
# [21] = test system: HOS; assay type: functional, cell-based, Homo sapiens; conditions: Homo sapiens, HOS;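 also: growth inhibition of human HOS cells, read out with a cell viability assay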
# Description: SANGER: Inhibition of human HOS cell growth in a cell viability assay.
# [22] = test system: LS-123; assay type: functional, cell-based, Homo sapiens; conditions: Homo sapiens, LS-123
# Description: SANGER: Inhibition of human LS-123 cell growth in a cell viability assay.
# [23] = test system: ES8; assay type: functional, cell-based, Homo sapiens; conditions: Homo sapiens, ES8;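 also: growth inhibition of human ES8 cells, read out with a cell viability assay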
# Description: SANGER: Inhibition of human ES8 cell growth in a cell viability assay.
# [24] = test system: Daoy; assay type: functional, cell-based, Homo sapiens; conditions: Homo sapiens, Daoy;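 also: daoy cell growth inhibition, read out as cell viability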
# Description: SANGER: Inhibition of human Daoy cell growth in a cell viability assay.
# [25] = test system: no-11; assay type: functional, cell-based, Homo sapiens; conditions: Homo sapiens;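 also: growth inhibition of human NO-11 cells, read out with a cell viability assay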
# Description: SANGER: Inhibition of human no-11 cell growth in a cell viability assay.
# [26] = test system: ES6; assay type: functional, cell-based, Homo sapiens; conditions: Homo sapiens, ES6;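 also: growth inhibition of human ES6 cells, read out with a cell viability assay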
# Description: SANGER: Inhibition of human ES6 cell growth in a cell viability assay.
# [27] = test system: KNS-42; assay type: functional, cell-based, Homo sapiens; conditions: Homo sapiens, KNS-42;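 also: growth inhibition of KNS-42 cells, read out with a cell viability assay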
# Description: SANGER: Inhibition of human KNS-42 cell growth in a cell viability assay.
# [28] = test system: D-247MG; assay type: functional, cell-based, Homo sapiens; conditions: Homo sapiens, D-247MG
# Description: SANGER: Inhibition of human D-247MG cell growth in a cell viability assay.
# [29] = test system: NCI-H727; assay type: functional, cell-based, Homo sapiens; conditions: Homo sapiens, NCI-H727;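 also: growth inhibition of human NCI-H727 cells, read out with a cell viability assay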
# Description: SANGER: Inhibition of human NCI-H727 cell growth in a cell viability assay.
# [30] = test system: SW1463; assay type: functional, cell-based, Homo sapiens; conditions: Homo sapiens, SW1463;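 also: growth inhibition of SW1463 cells, determined with a cell viability assay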
# Description: SANGER: Inhibition of human SW1463 cell growth in a cell viability assay.
# [31] = test system: ChaGo-K-1; assay type: functional, cell-based; conditions: Homo sapiens;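 also: growth inhibition of ChaGo-K-1 cells, read out with a cell viability assay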
# Description: SANGER: Inhibition of human ChaGo-K-1 cell growth in a cell viability assay.
# [32] = test system: CAL-33; assay type: functional, cell-based, Homo sapiens; conditions: Homo sapiens, CAL-33;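 also: growth inhibition of CAL-33 cells, read out with a cell viability assay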
# Description: SANGER: Inhibition of human CAL-33 cell growth in a cell viability assay.
# [33] = test system: H4; assay type: functional, cell-based; conditions: Homo sapiens
# Description: SANGER: Inhibition of human H4 cell growth in a cell viability assay.
# [34] = test system: SK-UT-1; assay type: functional, cell-based, Homo sapiens; conditions: Homo sapiens, SK-UT-1;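 also: growth inhibition of SK-UT-1 cells, measured by a cell viability assay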
# Description: SANGER: Inhibition of human SK-UT-1 cell growth in a cell viability assay.
# [35] = test system: LCLC-97TM1; assay type: functional, cell-based, Homo sapiens; conditions: Homo sapiens, LCLC-97TM1;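 also: cell viability assay measuring growth inhibition of human LCLC-97TM1 cells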
# Description: SANGER: Inhibition of human LCLC-97TM1 cell growth in a cell viability assay.
# [36] = test system: ML-2; assay type: functional, cell-based; conditions: Homo sapiens;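 also: growth inhibition of ML-2 cells, measured with a cell viability readout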
# Description: SANGER: Inhibition of human ML-2 cell growth in a cell viability assay.
# [37] = test system: NCI-H2405; assay type: functional, cell-based, Homo sapiens; conditions: Homo sapiens, NCI-H2405;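 also: growth inhibition of the human cell line, read out with a cell viability assay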
# Description: SANGER: Inhibition of human NCI-H2405 cell growth in a cell viability assay.
# [38] = test system: NCI-H2170; assay type: functional, cell-based, Homo sapiens; conditions: Homo sapiens, NCI-H2170;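 also: cell viability assay measuring growth inhibition of human NCI-H2170 cancer cells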
# Description: SANGER: Inhibition of human NCI-H2170 cell growth in a cell viability assay.
# [39] = test system: MDA-MB-453; assay type: functional, cell-based, Homo sapiens; conditions: Homo sapiens, MDA-MB-453
# Description: SANGER: Inhibition of human MDA-MB-453 cell growth in a cell viability assay.
# [40] = test system: KNS-81-FD; assay type: functional, cell-based, Homo sapiens; conditions: Homo sapiens, KNS-81-FD;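 also: growth inhibition of KNS-81-FD cells, read out with a cell viability assay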
# Description: SANGER: Inhibition of human KNS-81-FD cell growth in a cell viability assay.
# [41] = test system: NCI-H1304; assay type: functional, cell-based; conditions: Homo sapiens;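 also: growth inhibition of the cancer cell line, measured in a cell viability assay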
# Description: SANGER: Inhibition of human NCI-H1304 cell growth in a cell viability assay.
# [42] = test system: DU-4475; assay type: functional, cell-based; conditions: Homo sapiens
# Description: SANGER: Inhibition of human DU-4475 cell growth in a cell viability assay.
# [43] = test system: COLO-320-HSR; assay type: functional, cell-based; conditions: Homo sapiens;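 also: growth inhibition of COLO-320-HSR cells, determined with a cell viability assay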
# Description: SANGER: Inhibition of human COLO-320-HSR cell growth in a cell viability assay.
# [44] = test system: MC-IXC; assay type: functional, cell-based, Homo sapiens; conditions: Homo sapiens, MC-IXC;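 also: growth inhibition of MC-IXC cells, read out with a cell viability assay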
# Description: SANGER: Inhibition of human MC-IXC cell growth in a cell viability assay.
# [45] = test system: SF-295; assay type: functional, cell-based, Homo sapiens; conditions: Homo sapiens, SF-295; read-out: IC50;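 also: growth inhibition of SF-295 cells, read out with a cell viability assay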
# Description: SANGER: Inhibition of human SF295 cell growth in a cell viability assay.
# [46] = test system: L-363; assay type: functional, cell-based; conditions: Homo sapiens
# Description: SANGER: Inhibition of human L-363 cell growth in a cell viability assay.
# [47] = test system: SK-LMS-1; assay type: functional, cell-based, Homo sapiens; conditions: Homo sapiens, SK-LMS-1;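 also: growth inhibition of human SK-LMS-1 cells, read out with a cell viability assay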
# Description: SANGER: Inhibition of human SK-LMS-1 cell growth in a cell viability assay.
# [48] = test system: BB65-RCC; assay type: functional, cell-based, Homo sapiens; conditions: Homo sapiens, BB65-RCC;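 also: growth inhibition of the cell line, measured with a cell viability assay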
# Description: SANGER: Inhibition of human BB65-RCC cell growth in a cell viability assay.
# [49] = test system: WM-115; assay type: functional, cell-based, Homo sapiens; conditions: Homo sapiens, WM-115
# Description: SANGER: Inhibition of human WM-115 cell growth in a cell viability assay.
# [50] = test system: SCH; assay type: functional, cell-based, Homo sapiens; conditions: Homo sapiens, SCH;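 also: growth inhibition of human SCH cells, read out in a cell viability assay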
# Description: SANGER: Inhibition of human SCH cell growth in a cell viability assay.
# [51] = test system: RCC10RGB; assay type: functional, cell-based, Homo sapiens; conditions: Homo sapiens, RCC10RGB;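 also: growth inhibition of human RCC10RGB cells, read out by a cell viability assay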
# Description: SANGER: Inhibition of human RCC10RGB cell growth in a cell viability assay.
# [52] = test system: NUGC-3; assay type: functional, cell-based, Homo sapiens; conditions: Homo sapiens, NUGC-3;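 also: growth inhibition of human NUGC-3 cells, read out with a cell viability assay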
# Description: SANGER: Inhibition of human NUGC-3 cell growth in a cell viability assay.
smiles,measurement,setting,value
O=C(NOCC1CC1)c1ccc(F)c(F)c1Nc1ccc(I)cc1Cl [CI-1040],IC50,[1],2020 nM
same,IC50,[2],> 10000 nM
same,IC50,[3],> 10000 nM
same,IC50,[4],4690 nM
same,IC50,[5],1980 nM
same,IC50,[6],> 10000 nM
same,IC50,[7],411 nM
same,IC50,[8],> 10000 nM
same,IC50,[9],241 nM
same,IC50,[10],> 10000 nM
same,IC50,[11],> 10000 nM
same,IC50,[12],2450 nM
same,IC50,[13],> 10000 nM
same,IC50,[14],> 10000 nM
same,IC50,[15],8660 nM
same,IC50,[16],3330 nM
same,IC50,[17],2830 nM
same,IC50,[18],3600 nM
same,IC50,[19],> 10000 nM
same,IC50,[20],7120 nM
same,IC50,[21],5630 nM
same,IC50,[22],> 10000 nM
same,IC50,[23],> 10000 nM
same,IC50,[24],> 10000 nM
same,IC50,[25],> 10000 nM
same,IC50,[26],> 10000 nM
same,IC50,[27],> 10000 nM
same,IC50,[28],> 10000 nM
same,IC50,[29],2920 nM
same,IC50,[30],1340 nM
same,IC50,[31],> 10000 nM
same,IC50,[32],5120 nM
same,IC50,[33],5040 nM
same,IC50,[34],8980 nM
same,IC50,[35],1920 nM
same,IC50,[36],1530 nM
same,IC50,[37],> 10000 nM
same,IC50,[38],> 10000 nM
same,IC50,[39],> 10000 nM
same,IC50,[40],> 10000 nM
same,IC50,[41],6200 nM
same,IC50,[42],76 nM
same,IC50,[43],> 10000 nM
same,IC50,[44],> 10000 nM
same,IC50,[45],> 10000 nM
same,IC50,[46],2740 nM
same,IC50,[47],> 10000 nM
same,IC50,[48],2410 nM
same,IC50,[49],493 nM
same,IC50,[50],> 10000 nM
same,IC50,[51],> 10000 nM
same,IC50,[52],5490 nM
Nc1ccn([C@@H]2O[C@H](CO)[C@@H](O)[C@@H]2O)c(=O)n1 [CYTARABINE],IC50,[1],> 2000 nM
same,IC50,[2],> 2000 nM
same,IC50,[3],1470 nM
same,IC50,[4],> 2000 nM
same,IC50,[5],700 nM
same,IC50,[6],> 2000 nM
same,IC50,[7],> 2000 nM
same,IC50,[8],> 2000 nM
same,IC50,[9],> 2000 nM
same,IC50,[10],> 2000 nM
same,IC50,[11],> 2000 nM
same,IC50,[12],1270 nM
same,IC50,[13],> 2000 nM
same,IC50,[14],1390 nM
same,IC50,[15],> 2000 nM
same,IC50,[16],> 2000 nM
same,IC50,[17],> 2000 nM
same,IC50,[18],34.5 nM
same,IC50,[19],> 2000 nM
same,IC50,[20],1600 nM
same,IC50,[21],518 nM
same,IC50,[22],> 2000 nM
same,IC50,[23],124 nM
same,IC50,[24],532 nM
same,IC50,[25],> 2000 nM
same,IC50,[26],721 nM
same,IC50,[27],> 2000 nM
same,IC50,[28],1090 nM
same,IC50,[29],> 2000 nM
same,IC50,[30],> 2000 nM
same,IC50,[31],> 2000 nM
same,IC50,[32],1180 nM
same,IC50,[33],274 nM
same,IC50,[34],181 nM
same,IC50,[35],477 nM
same,IC50,[36],270 nM
same,IC50,[37],> 2000 nM
same,IC50,[38],> 2000 nM
same,IC50,[39],> 2000 nM
same,IC50,[40],> 2000 nM
same,IC50,[41],> 2000 nM
same,IC50,[42],575 nM
same,IC50,[43],> 2000 nM
same,IC50,[44],41.4 nM
same,IC50,[45],> 2000 nM
same,IC50,[46],1340 nM
same,IC50,[47],> 2000 nM
same,IC50,[48],110 nM
same,IC50,[49],> 2000 nM
same,IC50,[50],> 2000 nM
same,IC50,[51],> 2000 nM
same,IC50,[52],589 nM
COc1cc([C@@H]2c3cc4c(cc3[C@@H](O[C@@H]3O[C@@H]5CO[C@@H](C)O[C@H]5[C@H](O)[C@H]3O)[C@H]3COC(=O)[C@H]23)OCO4)cc(OC)c1O [ETOPOSIDE],IC50,[1],> 16000 nM
same,IC50,[2],2550 nM
same,IC50,[3],3670 nM
same,IC50,[4],> 16000 nM
same,IC50,[5],> 16000 nM
same,IC50,[6],2380 nM
same,IC50,[7],2290 nM
same,IC50,[8],> 16000 nM
same,IC50,[9],1880 nM
same,IC50,[10],> 16000 nM
same,IC50,[11],2160 nM
same,IC50,[12],4800 nM
same,IC50,[13],> 16000 nM
same,IC50,[14],12600 nM
same,IC50,[15],11100 nM
same,IC50,[16],> 16000 nM
same,IC50,[17],> 16000 nM
same,IC50,[18],103 nM
same,IC50,[19],> 16000 nM
same,IC50,[20],1050 nM
same,IC50,[21],474 nM
same,IC50,[22],4020 nM
same,IC50,[23],142 nM
same,IC50,[24],368 nM
same,IC50,[25],7560 nM
same,IC50,[26],> 16000 nM
same,IC50,[27],13700 nM
same,IC50,[28],> 16000 nM
same,IC50,[29],> 16000 nM
same,IC50,[30],> 16000 nM
same,IC50,[31],3790 nM
same,IC50,[32],686 nM
same,IC50,[33],297 nM
same,IC50,[34],42.4 nM
same,IC50,[35],766 nM
same,IC50,[36],178 nM
same,IC50,[37],2440 nM
same,IC50,[38],1850 nM
same,IC50,[39],> 16000 nM
same,IC50,[40],> 16000 nM
same,IC50,[41],2300 nM
same,IC50,[42],96.2 nM
same,IC50,[43],9730 nM
same,IC50,[44],115 nM
same,IC50,[45],1660 nM
same,IC50,[46],6590 nM
same,IC50,[47],553 nM
same,IC50,[48],979 nM
same,IC50,[49],> 16000 nM
same,IC50,[50],> 16000 nM
same,IC50,[51],> 16000 nM
same,IC50,[52],981 nM

# Reference: ChEMBL document CHEMBL1201861, “Genomics of Drug Sensitity in Cancer screening data, Wellcome Trust Sanger Institute”
